Values after ≈ are worked out from the molar mass of the structure shown. “Also recorded” adds a separate entry of the source. Like-named read-outs stand apart in the source and are kept apart here.
Columns and labels:
[1] = cytotoxicity in Hela cell cultures; details: human, hela cells
Vaccinia virus = assay: microbe, parasite or virus in culture; assay type: cell-based; details: Orthopoxvirus vaccinia, read-out: MIC Vaccinia virus
[2] = system: influenza virus A (Ishikawa); assay: microbe, parasite or virus in culture; assay type: cell-based; details: unidentified influenza virus, read-out: MIC influenza virus A (Ishikawa)
[3] = cytotoxicity in primary rabbit kidney (PRK) cell cultures; details: primary rabbit kidney cells
Semliki forest virus = assay: inhibition of virus induced cytopathogenicity, Vero cells, Semliki forest virus; assay type: cell-based
Protocol: (§1) Antiviral activity of some eudistomin derivatives was determined in a large number of in-vitro assays as described in reference 9. These tests are all based on the inhibition of virus induced cytopathogenicity. Depending upon the virus studied, different cell cultures were used. […] New compound 67 has the additional advantage of a 10-fold higher potency as compared with known compound 63.

Coxsackie virus B4 = assay: inhibition of virus induced cytopathogenicity, Hela cells, Coxsackie virus B4; assay type: cell-based; details: Enterovirus B
Protocol: as §1

Reovirus-1 = assay: inhibition of virus induced cytopathogenicity, Vero cells, Reovirus-1; assay type: cell-based
Protocol: as §1

Coxsasckie virus B4 = assay: inhibition of virus induced cytopathogenicity, Vero cells, Coxsackie virus B4; assay type: cell-based; details: Enterovirus B
Protocol: as §1

[4] = system: Respiratory syncytial virus (Lung); assay: inhibition of virus induced cytopathogenicity, Hela cells, respiratory syncytial virus (Lung); assay type: cell-based; details: human respiratory syncytial virus
Protocol: as §1

[5] = cytotoxicity in MDCK cell cultures; details: dog
parainfluenza-3 virus = assay: inhibition of virus induced cytopathogenicity, Vero cells, parainfluenza-3 virus; assay type: cell-based
Protocol: as §1

[6] = system: influenza virus B (Singapore); assay: microbe, parasite or virus in culture; assay type: cell-based; details: unidentified influenza virus, read-out: MIC influenza virus B (Singapore)
[7] = cytotoxicity in Vero cell cultures; details: monkey, vero cells
P 388 leukemia cells = assay: inhibition of P 388 leukemia cells colony formation (in vitro antitumour); assay type: cell-based; details: for IC50: Mus musculus, P388, read-out: ID50
Protocol: The antitumour activity of some eudistomin derivatives and the references antitumour drug was assessed in an invitro test with high predictive power for in-vivo activity. In this assay the inhibition of P 388 leukemia cells colony formation was determined at several concentrations of the test compounds as described in reference 8. The activity is expressed as an ID50 value, which indicates the dose causing 50% inhibition with respect to untreated control cells.

Polio virus = assay: microbe, parasite or virus in culture; assay type: cell-based; details: read-out: MIC Polio virus
[8] = system: Herpes simplex virus-1 (KOS); assay type: cell-based; details: Human alphaherpesvirus 1; PRK cells
Protocol: as §1

[9] = system: Herpes simplex virus-1 (F); assay type: cell-based; details: Human alphaherpesvirus 1; PRK cells
Protocol: as §1

[10] = system: Herpes simplex virus-2 (Lyons); assay type: cell-based; details: Human alphaherpesvirus 2; PRK cells
Protocol: as §1

[11] = system: Herpes simplex virus-2 (196); assay type: cell-based; details: Human alphaherpesvirus 2; PRK cells
Protocol: as §1

[12] = system: Herpes simplex virus-2 (G); assay type: cell-based; details: Human alphaherpesvirus 2; PRK cells
Protocol: as §1

[13] = system: Herpes simplex virus-1 (McInyre); assay type: cell-based; details: Human alphaherpesvirus 1; PRK cells
Protocol: as §1

Sindbis virus = assay: inhibition of virus induced cytopathogenicity, Vero cells, Sindbis virus; assay type: cell-based
Protocol: as §1

22 antiviral test models = assay: 22 antiviral assays taken together (summary statements); assay type: cell-based
Protocol: as §1

in vitro [14] = details: monkey, vero cells
in vitro [15] = details: dog, mdck
[16] = system: Vesicular stomatitis virus; assay: microbe, parasite or virus in culture; assay type: cell-based; details: read-out: MIC Vesicular stomatitis virus
in vitro [17] = details: rabbit, primary rabbit kidney cells
[18] = system: Vesicular stomatitis virus; assay: microbe, parasite or virus in culture; assay type: cell-based; details: read-out: MIC Vesicular stomatitis virus; remark: listed apart in the source
in vitro [19] = details: human, hela cells

Compound | MIC (Vaccinia virus) [µg/mL] | MIC [2] [µg/mL] | MIC (Semliki forest virus) [µg/mL] | MIC (Coxsackie virus B4) [µg/mL] | MIC (Reovirus-1) [µg/mL] | MIC (Coxsasckie virus B4) [µg/mL] | MIC [4] [µg/mL] | MIC (parainfluenza-3 virus) [µg/mL] | MIC [6] [µg/mL] | MIC (Polio virus) [µg/mL] | MIC [8] [µg/mL] | MIC [9] [µg/mL] | MIC [10] [µg/mL] | MIC [11] [µg/mL] | MIC [12] [µg/mL] | MIC [13] [µg/mL] | MIC (Sindbis virus) [µg/mL] | MCC (in vitro [14]) [µg/mL] | MCC (in vitro [15]) [µg/mL] | MCC (in vitro [17]) [µg/mL] | also measured
c1ccc2c3c([nH]c2c1)C1CCSCON1CC3 (racemic) [Compound 50, (±)-Deamino, debromo Eudistomin L] | > 70 | > 40 | > 25 | > 10 | > 10 | > 25 | > 8 | > 10 | > 40 | > 10 | > 70 | > 70 | > 70 | > 70 | > 120 | > 70 | > 10 |  |  |  | MCC [1]: ≥ 30 µg/mL; MCC [3]: ≥ 120 µg/mL; MCC [5]: 80 µg/mL; MCC [7]: ≥ 40 µg/mL; ID50 (P 388 leukemia cells; dose causing 50% inhibition of colony formation vs untreated control cells): no activity at 1.0
N[C@@H]1CSCON2CCc3c([nH]c4ccccc34)[C@H]12 [Compound 63, (1S.13bS)-debromo Eudistomin L] | 0.25 (≈ 0.908 µM) | 0.8 (≈ 2.91 µM) | 0.45 (≈ 1.63 µM) | 0.55 (≈ 2 µM) | 0.4 (≈ 1.45 µM) | 0.55 (≈ 2 µM) | 0.8 (≈ 2.91 µM) | > 0.6 | 0.8 (≈ 2.91 µM) | 0.7 (≈ 2.54 µM) | 1.35 (≈ 4.9 µM) | 0.25 (≈ 0.908 µM) | 0.38 (≈ 1.38 µM) | 0.2 (≈ 0.726 µM) | 0.2 (≈ 0.726 µM) | 0.2 (≈ 0.726 µM) | 0.35 (≈ 1.27 µM) | ≥ 4 | 8 | ≥ 25 | spectrum of antiviral activity (22 antiviral test models): exceptionally wide range of activities; also recorded: very broad spectrum of antiviral activity; MIC [16]: 0.2 µg/mL (≈ 0.726 µM); MIC [18]: 0.2 µg/mL (≈ 0.726 µM); MCC (in vitro [19]): ≥ 4 µg/mL; IC50 (P 388 leukemia cells): 42 µg/mL (≈ 153 µM)
COc1ccc2[nH]c3c(c2c1)CCN1OCSCC(N)C31 [Compound 67, (1S,13bS)-5-methoxy Eudistomin L] | 0.012 (≈ 0.0393 µM) | > 0.32 | 0.11 (≈ 0.36 µM) | 0.045 (≈ 0.147 µM) | 0.045 (≈ 0.147 µM) | 0.07 (≈ 0.229 µM) | 0.15 (≈ 0.491 µM) | 0.55 (≈ 1.8 µM) | > 0.32 | 0.045 (≈ 0.147 µM) | 0.045 (≈ 0.147 µM) | 0.039 (≈ 0.128 µM) | 0.023 (≈ 0.0753 µM) | 0.014 (≈ 0.0458 µM) | 0.012 (≈ 0.0393 µM) | 0.013 (≈ 0.0426 µM) | 0.045 (≈ 0.147 µM) | ≥ 1 | 0.8 | ≥ 2.5 | spectrum of antiviral activity (22 antiviral test models): exceptionally wide range of activities; also recorded: very broad spectrum of antiviral activity; MCC (in vitro [19]): 2 µg/mL; IC50 (P 388 leukemia cells): 3.8 µg/mL (≈ 12.4 µM)
NC(=O)c1ncn([C@@H]2O[C@H](CO)[C@@H](O)[C@H]2O)n1 [Ribavirin, ribavirin, reference compound] | 30 (≈ 123 µM) | 15 (≈ 61.4 µM) | > 300 | 70 (≈ 287 µM) | 125 (≈ 512 µM) | > 300 | 3 (≈ 12.3 µM) | 135 (≈ 553 µM) | 15 (≈ 61.4 µM) | 110 (≈ 450 µM) | > 200 | > 200 | > 200 | > 200 | > 200 | > 200 | > 235 | > 400 | > 200 | ≥ 400 | MCC (in vitro [19]): ≥ 400 µg/mL
COc1cccc2c1C(=O)c1c(O)c3c(c(O)c1C2=O)C[C@@](O)(C(=O)CO)C[C@@H]3O[C@H]1C[C@H](N)[C@H](O)[C@H](C)O1 [adriamycin, reference compound] |  |  |  |  |  |  |  |  |  |  |  |  |  |  |  |  |  |  |  |  | IC50 (P 388 leukemia cells): 20 µg/mL (≈ 36.8 µM)

Source: patent publication US5348949A, “Method of preparing N-oxo-tetrahydro-β-carbolines” (Duphar International Research B.V., priority 1989, dated 1994)
